Results on eight compounds are retold here after ChEMBL document CHEMBL4014321, “Discovery of Pyrazolo[1,5-a]pyrimidine B-Cell Lymphoma 6 (BCL6) Binders and Optimization to High Affinity Macrocyclic Inhibitors” (J Med Chem, 2017).

Experiment [1] in a line: Inhibition of human CK2 protein.
The next experiment has as its system OCI-Ly1. In words: Antiproliferative activity against BCL6 dependent human OCI-LY1 cells after 3 days by CellTiter-Glo assay. The format is functional. The settings on record: OCI-Ly1, 72 h.
The subject of the next experiment is TMD8. As to the kind of experiment: Antiproliferative activity against BCL6 dependent human TMD8 cells after 3 days by CellTiter-Glo assay. The following applies: TMD8, 72 h. The format is functional.
The test system of another experiment is OCI-Ly3. As to the kind of experiment: Antiproliferative activity against BCL6 dependent human OCI-LY3 cells after 3 days by CellTiter-Glo assay. The experiment is classed as functional. The settings on record: OCI-Ly3, 72 h.
The test system of another experiment is OCI-Ly10. As to the kind of experiment: Antiproliferative activity against BCL6 dependent human OCI-LY10 cells after 3 days by CellTiter-Glo assay. The format is functional. The following applies: OCI-Ly10, 72 h.
The test system of the next experiment is SU-DHL-2. In words: Antiproliferative activity against BCL6 dependent human SU-DHL-2 cells after 3 days by CellTiter-Glo assay. The settings on record: SU-DHL-2, 72 h. The format is functional.
A further experiment has as its system SUD4. As to the kind of experiment: Antiproliferative activity against BCL6 dependent human SUDHL4 cells after 3 days by CellTiter-Glo assay. The following applies: SU-DHL-4, 72 h. The format is functional.
A further experiment concerns U2932. In words: Antiproliferative activity against BCL6 dependent human U2932 cells after 3 days by CellTiter-Glo assay. The experiment is classed as functional. The settings on record: U2932, 72 h.
The next experiment concerns KARPAS-422. In words: Antiproliferative activity against BCL6 […] human KARPAS422 cells after 3 days by CellTiter-Glo assay. The format is functional. The following applies: KARPAS-422, 72 h.
The subject of another experiment is OCI-LY19. As to the kind of experiment: Antiproliferative activity against BCL6 independent human OCI-LY19 cells after 3 days by CellTiter-Glo assay. The experiment is classed as functional. The settings on record: OCI-LY19, 72 h.
The next experiment has as its system AMO1. In words: Antiproliferative activity against BCL6 dependent human AMO1 cells after 3 days by CellTiter-Glo assay. The format is functional. The following applies: AMO1, 72 h.

`O=C1CCc2cc3cc(c2N1CC1CC1)OC/C=C/CO[C@H]1C[C@@H](CO)N(C1)c1cc(n2ncc(Cl)c2n1)N3` came in with an IC50 in [1] of 2.2 µM. Besides, the GI50 with OCI-Ly1 is over 31.6 µM; in the experiment on TMD8, 25.1 µM; with OCI-Ly3, over 31.6 µM; in the experiment with OCI-Ly10 it was 20 µM; with SU-DHL-2, 20 µM; in the experiment on SUD4, over 31.6 µM. For the same compound, the GI50 with U2932 is 10 µM; in the experiment on KARPAS-422 it was over 31.6 µM; in the experiment with OCI-LY19, 15.8 µM; in the experiment with AMO1, over 31.6 µM.

Consider `O=C(O)CCN1C(=O)/C(=C2/C(=O)Nc3ccc(Cl)cc32)SC1=S`, for which 0.69 µM corresponded to half-maximal inhibition in experiment [1] (IC50). For the same compound, the GI50 in the experiment on OCI-Ly1 is 20 µM; in the experiment with TMD8, 10 µM; in the experiment on OCI-Ly3, 20 µM; in the experiment with OCI-Ly10, 12.6 µM; in the experiment on SU-DHL-2 it was 12.6 µM; with SUD4, 10 µM. The GI50 in the experiment on U2932 was 12.6 µM; in the experiment on KARPAS-422, 12.6 µM; with OCI-LY19, 10 µM; in the experiment on AMO1, 20 µM.

In turn, `O=C(O)C[C@@H]1C[C@H]2CN1c1cc(n3ncc(Cl)c3n1)Nc1cc3c(c(c1)OC/C=C/CO2)N(CC1CC(F)(F)C1)C(=O)CC3` returned an IC50 in experiment [1] of 0.16 µM. In addition, the GI50 with OCI-Ly1 was 15.8 µM; in the experiment on TMD8 it was 15.8 µM; in the experiment with OCI-Ly3, 20 µM; with OCI-Ly10, 15.8 µM; with SU-DHL-2 it was 20 µM; in the experiment with SUD4 it was 15.8 µM. For the same compound, the concentration for 50% growth inhibition (GI50) is 15.8 µM with U2932, 20 µM in the experiment with KARPAS-422, 10 µM with OCI-LY19 and 31.6 µM in the experiment on AMO1.

On to `COc1cccc(CN2C(=O)CCc3cc4cc(c32)OC/C=C/CO[C@H]2C[C@@H](CO)N(C2)c2cc(n3ncc(Cl)c3n2)N4)c1`, for which the IC50 in experiment [1] was over 10 µM. In addition, the GI50 is 6.31 µM with OCI-Ly1; 20 µM in the experiment on TMD8; over 31.6 µM with OCI-Ly3; 6.31 µM in the experiment on OCI-Ly10; 6.31 µM with SU-DHL-2; 31.6 µM with SUD4. For the same compound, the concentration for 50% growth inhibition (GI50) in the experiment on U2932 was 15.8 µM; in the experiment with KARPAS-422 it was 25.1 µM; in the experiment on OCI-LY19, 10 µM; with AMO1, 15.8 µM.

The compound `O=C1CCc2cc3cc(c2N1)OCCCCO[C@H]1C[C@@H](CO)N(C1)c1cc(n2ncc(Cl)c2n1)N3` displayed an IC50 in [1] of 1.4 µM. Further, the GI50 in the experiment with OCI-Ly1 was 6.31 µM; in the experiment on TMD8, 3.16 µM; in the experiment with OCI-Ly3 it was 3.16 µM; with OCI-Ly10, 2.51 µM; with SU-DHL-2, 3.98 µM; in the experiment with SUD4 it was 10 µM. In addition, the GI50 in the experiment on U2932 was 5.01 µM; with KARPAS-422, 5.01 µM; with OCI-LY19, 1.58 µM; with AMO1, 3.98 µM.

Consider `N#Cc1cnn2c3cc(nc12)N1C[C@H](C[C@H]1CO)OCCCCOc1cc(cc2c1NC(=O)CC2)N3`, for which, in [1], the IC50 was 0.4 µM. The GI50 with OCI-Ly1 is 25.1 µM; in the experiment on TMD8 it was 15.8 µM; in the experiment on OCI-Ly3 it was 12.6 µM; in the experiment with OCI-Ly10, 10 µM; with SU-DHL-2, 12.6 µM; in the experiment on SUD4, 25.1 µM. For the same compound, the GI50 with U2932 was 15.8 µM; with KARPAS-422 it was 20 µM; in the experiment on OCI-LY19, 15.8 µM; in the experiment with AMO1, 20 µM.

For `N#Cc1cnn2c3cc(nc12)N1CC[C@@H](C1)OCCCCOc1cc(cc2c1NC(=O)CC2)N3`, the GI50 was 7.94 µM in the experiment with OCI-Ly1; 5.01 µM in the experiment on TMD8; 3.98 µM in the experiment with OCI-Ly3; 7.94 µM in the experiment with OCI-Ly10; 10 µM in the experiment on SU-DHL-2; 10 µM with SUD4. The GI50 with U2932 is 10 µM; in the experiment with KARPAS-422 it was 7.94 µM; with OCI-LY19 it was 7.94 µM; in the experiment with AMO1, 10 µM.

In turn, `CC(=O)Nc1ccc(-c2cc(NC3CC3)n3ncc(C#N)c3n2)cc1N1CC[C@@H](N(C)C)C1` yielded a half-maximal inhibitory concentration (IC50) in experiment [1] of 0.012 µM. In other words, the double-digit nanomolar range.
